“Also recorded” adds a separate entry of the source.
Experiments:
[1] = system: insect NaV channels (cockroach DUM neurons); assay: Whole-cell patch-clamp, NaV channel currents; type: cell-based, American cockroach (Periplaneta americana)
NaV channels = details: cited from earlier work

NC1=N[C@H](O)[C@H]2[C@H]3O[C@]4(O)O[C@@H]([C@@H](O)[C@@]2(N1)[C@@H]4O)[C@]3(O)CO [TTX, tetrodotoxin]
inhibition of INa by TTX [1]: complete INa inhibition; also recorded: Complete block of INa
effect on peak INa (NaV channels): reduce peak INa

Reference: PMC3654253 (Biochemical pharmacology, 2013)
